Reference: patent publication US11109593B2, “Isoxazolin-5-one derivative and herbicide containing same as active ingredient” (HOKKO CHEMICAL INDUSTRY CO., LTD., priority 2017, dated 2021)

Test system: Echinochloa crus-galli
Assay: Test Example 2: herbicidal effect test by treatment during growing period in paddy rice cultivation (seven days after seeding)
Assay type: in vivo
Conditions: 120 g/10a active ingredient, assessed 14 days after treatment, dry weight vs untreated area
How it was run: (§1)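 Greenhouse flooded-pot test, seeds sown in puddled paddy soil; emulsion applied into water 7 d after seeding, 120 g a.i./10 a. Dry-weight-based herbicidal rate at 14 d, n=2.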

| SMILES | Herbicidal rate (%) Echinochloa crus-galli [%] |
| --- | --- |
| CCCC(CC)n1oc(=O)c(Cc2ccccc2N(S(=O)(=O)C(F)(F)F)S(=O)(=O)C(F)(F)F)c1C (centres unmarked) [Compound 1-971] | 100 |
| CCC(C)n1oc(=O)c(Cc2ccccc2N(C(=O)OCC2CCCO2)S(=O)(=O)C(F)(F)F)c1C (centres unmarked) [Compound 1-829] | 90 |

Test system: broad leaf weeds (Lindernia pyxidaria and Monochoria vaginalis)
Assay: as above
Assay type: in vivo
Conditions: Lindernia pyxidaria, 120 g/10a active ingredient, assessed 14 days after treatment, dry weight vs untreated area
How it was run: as §1

| SMILES | Herbicidal rate (%) Lindernia pyxidaria [%] |
| --- | --- |
| CCCC(CC)n1oc(=O)c(Cc2ccccc2N(S(=O)(=O)C(F)(F)F)S(=O)(=O)C(F)(F)F)c1C (centres unmarked) [Compound 1-971] | 80 |
| CCC(C)n1oc(=O)c(Cc2ccccc2N(C(=O)OCC2CCCO2)S(=O)(=O)C(F)(F)F)c1C (centres unmarked) [Compound 1-829] | 90 |

Same assay, conditions: Monochoria vaginalis, 120 g/10a active ingredient, assessed 14 days after treatment, dry weight vs untreated area

| SMILES | Herbicidal rate (%) Monochoria vaginalis [%] |
| --- | --- |
| CCCC(CC)n1oc(=O)c(Cc2ccccc2N(S(=O)(=O)C(F)(F)F)S(=O)(=O)C(F)(F)F)c1C (centres unmarked) [Compound 1-971] | 90 |
| CCC(C)n1oc(=O)c(Cc2ccccc2N(C(=O)OCC2CCCO2)S(=O)(=O)C(F)(F)F)c1C (centres unmarked) [Compound 1-829] | 90 |

Test system: Scirpus juncoides
Assay: as above
Assay type: in vivo
Conditions: 120 g/10a active ingredient, assessed 14 days after treatment, dry weight vs untreated area
How it was run: as §1

| SMILES | Herbicidal rate (%) Scirpus juncoides [%] |
| --- | --- |
| CCCC(CC)n1oc(=O)c(Cc2ccccc2N(S(=O)(=O)C(F)(F)F)S(=O)(=O)C(F)(F)F)c1C (centres unmarked) [Compound 1-971] | 90 |
| CCC(C)n1oc(=O)c(Cc2ccccc2N(C(=O)OCC2CCCO2)S(=O)(=O)C(F)(F)F)c1C (centres unmarked) [Compound 1-829] | 90 |

Test system: Echinochloa crus-galli
Assay: Test Example 4: herbicidal effect test by treatment of leave and stem in dry field farming (seven days after seeding)
Assay type: in vivo
Conditions: 120 g/10a active ingredient; emulsion sprayed seven days after seeding; evaluated 14 days after treatment
How it was run: (§2)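 Twenty seeds per species were mixed into the top 1 cm of alluvial soil in 36 cm^2 pots; emulsions were sprayed seven days after seeding at 100 L per 10 ares (120 g active ingredient per 10 ares). Herbicidal rate (%) = {1 − treated/untreated mean dry weight} × 100, 14 days after treatment, duplicate.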

| SMILES | herbicidal effect (herbicidal rate), Echinochloa crus-galli [%] |
| --- | --- |
| CCCC(CC)n1oc(=O)c(Cc2ccccc2N(S(=O)(=O)C(F)(F)F)S(=O)(=O)C(F)(F)F)c1C (centres unmarked) [Compound 1-971] | 90 |
| CCC(C)n1oc(=O)c(Cc2ccccc2N(C(=O)OCC2CCCO2)S(=O)(=O)C(F)(F)F)c1C (centres unmarked) [Compound 1-829] | 90 |

Test system: Amaranthus viridis
Assay: as above
Assay type: in vivo
Conditions: 120 g/10a active ingredient; emulsion sprayed seven days after seeding; evaluated 14 days after treatment
How it was run: as §2

| SMILES | herbicidal effect (herbicidal rate), Amaranthus viridis [%] |
| --- | --- |
| CCCC(CC)n1oc(=O)c(Cc2ccccc2N(S(=O)(=O)C(F)(F)F)S(=O)(=O)C(F)(F)F)c1C (centres unmarked) [Compound 1-971] | 40 |
| CCC(C)n1oc(=O)c(Cc2ccccc2N(C(=O)OCC2CCCO2)S(=O)(=O)C(F)(F)F)c1C (centres unmarked) [Compound 1-829] | 40 |

Test system: southern crabgrass
Assay: as above
Assay type: in vivo
Conditions: 120 g/10a active ingredient; emulsion sprayed seven days after seeding; evaluated 14 days after treatment
How it was run: as §2

| SMILES | herbicidal effect (herbicidal rate), southern crabgrass [%] |
| --- | --- |
| CCCC(CC)n1oc(=O)c(Cc2ccccc2N(S(=O)(=O)C(F)(F)F)S(=O)(=O)C(F)(F)F)c1C (centres unmarked) [Compound 1-971] | 90 |
| CCC(C)n1oc(=O)c(Cc2ccccc2N(C(=O)OCC2CCCO2)S(=O)(=O)C(F)(F)F)c1C (centres unmarked) [Compound 1-829] | 90 |

Test system: Chenopodium album
Assay: as above
Assay type: in vivo
Conditions: 120 g/10a active ingredient; emulsion sprayed seven days after seeding; evaluated 14 days after treatment
How it was run: as §2

| SMILES | herbicidal effect (herbicidal rate), Chenopodium album [%] |
| --- | --- |
| CCCC(CC)n1oc(=O)c(Cc2ccccc2N(S(=O)(=O)C(F)(F)F)S(=O)(=O)C(F)(F)F)c1C (centres unmarked) [Compound 1-971] | 50 |
| CCC(C)n1oc(=O)c(Cc2ccccc2N(C(=O)OCC2CCCO2)S(=O)(=O)C(F)(F)F)c1C (centres unmarked) [Compound 1-829] | 40 |

Test system: Echinochloa crus-galli
Assay: Test Example 3: herbicidal effect test by treatment of dry field farming soil (one day after seeding)
Assay type: in vivo
Conditions: 120 g/10a active ingredient, evaluated 14 days after treatment
How it was run: (§3)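 Compound emulsions are sprayed on the soil surface one day after sowing (120 g a.i. per 10 ares) before weeds emerge. Effect is expressed as percent dry-weight reduction versus untreated controls 14 days post-treatment.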

| SMILES | herbicidal rate, Echinochloa crus-galli [%] |
| --- | --- |
| CCCC(CC)n1oc(=O)c(Cc2ccccc2N(S(=O)(=O)C(F)(F)F)S(=O)(=O)C(F)(F)F)c1C (centres unmarked) [Compound 1-971] | 90 |
| CCC(C)n1oc(=O)c(Cc2ccccc2N(C(=O)OCC2CCCO2)S(=O)(=O)C(F)(F)F)c1C (centres unmarked) [Compound 1-829] | 90 |

Test system: Amaranthus viridis
Assay: as above
Assay type: in vivo
Conditions: 120 g/10a active ingredient, evaluated 14 days after treatment
How it was run: as §3

| SMILES | herbicidal rate, Amaranthus viridis [%] |
| --- | --- |
| CCCC(CC)n1oc(=O)c(Cc2ccccc2N(S(=O)(=O)C(F)(F)F)S(=O)(=O)C(F)(F)F)c1C (centres unmarked) [Compound 1-971] | 80 |
| CCC(C)n1oc(=O)c(Cc2ccccc2N(C(=O)OCC2CCCO2)S(=O)(=O)C(F)(F)F)c1C (centres unmarked) [Compound 1-829] | 90 |

Test system: southern crabgrass
Assay: as above
Assay type: in vivo
Conditions: 120 g/10a active ingredient, evaluated 14 days after treatment
How it was run: as §3

| SMILES | herbicidal rate, southern crabgrass [%] |
| --- | --- |
| CCCC(CC)n1oc(=O)c(Cc2ccccc2N(S(=O)(=O)C(F)(F)F)S(=O)(=O)C(F)(F)F)c1C (centres unmarked) [Compound 1-971] | 80 |
| CCC(C)n1oc(=O)c(Cc2ccccc2N(C(=O)OCC2CCCO2)S(=O)(=O)C(F)(F)F)c1C (centres unmarked) [Compound 1-829] | 90 |

Test system: Chenopodium album
Assay: as above
Assay type: in vivo
Conditions: 120 g/10a active ingredient, evaluated 14 days after treatment
How it was run: as §3

| SMILES | herbicidal rate, Chenopodium album [%] |
| --- | --- |
| CCCC(CC)n1oc(=O)c(Cc2ccccc2N(S(=O)(=O)C(F)(F)F)S(=O)(=O)C(F)(F)F)c1C (centres unmarked) [Compound 1-971] | 60 |
| CCC(C)n1oc(=O)c(Cc2ccccc2N(C(=O)OCC2CCCO2)S(=O)(=O)C(F)(F)F)c1C (centres unmarked) [Compound 1-829] | 90 |

Test system: Echinochloa crus-galli
Assay: Test Example 1: herbicidal effect test by treatment of rice paddy soil (immediately after seeding)
Assay type: in vivo
Conditions: 120 g/10a active ingredient, dry weight vs untreated area, 14 days after treatment
How it was run: (§4)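 Flooded paddy pot test in a glass greenhouse: emulsion diluted in water, dropped at 120 g a.i. per 10 ares just after sowing, water depth kept about 3 cm. Dry-weight reduction relative to untreated plants is scored at 14 days.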

| SMILES | Herbicidal rate (%) Echinochloa crus-galli [%] |
| --- | --- |
| CCCC(CC)n1oc(=O)c(Cc2ccccc2N(S(=O)(=O)C(F)(F)F)S(=O)(=O)C(F)(F)F)c1C (centres unmarked) [Compound 1-971] | 100 |
| CCC(C)n1oc(=O)c(Cc2ccccc2N(C(=O)OCC2CCCO2)S(=O)(=O)C(F)(F)F)c1C (centres unmarked) [Compound 1-829] | 90 |

Test system: broad leaf weeds (Lindernia pyxidaria and Monochoria vaginalis)
Assay: as above
Assay type: in vivo
Conditions: Lindernia pyxidaria, 120 g/10a active ingredient, dry weight vs untreated area, 14 days after treatment
How it was run: as §4

| SMILES | Herbicidal rate (%) Lindernia pyxidaria [%] |
| --- | --- |
| CCCC(CC)n1oc(=O)c(Cc2ccccc2N(S(=O)(=O)C(F)(F)F)S(=O)(=O)C(F)(F)F)c1C (centres unmarked) [Compound 1-971] | 100 |
| CCC(C)n1oc(=O)c(Cc2ccccc2N(C(=O)OCC2CCCO2)S(=O)(=O)C(F)(F)F)c1C (centres unmarked) [Compound 1-829] | 90 |

Same assay, conditions: Monochoria vaginalis, 120 g/10a active ingredient, dry weight vs untreated area, 14 days after treatment

| SMILES | Herbicidal rate (%) Monochoria vaginalis [%] |
| --- | --- |
| CCCC(CC)n1oc(=O)c(Cc2ccccc2N(S(=O)(=O)C(F)(F)F)S(=O)(=O)C(F)(F)F)c1C (centres unmarked) [Compound 1-971] | 100 |
| CCC(C)n1oc(=O)c(Cc2ccccc2N(C(=O)OCC2CCCO2)S(=O)(=O)C(F)(F)F)c1C (centres unmarked) [Compound 1-829] | 90 |

Test system: Scirpus juncoides
Assay: as above
Assay type: in vivo
Conditions: 120 g/10a active ingredient, dry weight vs untreated area, 14 days after treatment
How it was run: as §4

| SMILES | Herbicidal rate (%) Scirpus juncoides [%] |
| --- | --- |
| CCCC(CC)n1oc(=O)c(Cc2ccccc2N(S(=O)(=O)C(F)(F)F)S(=O)(=O)C(F)(F)F)c1C (centres unmarked) [Compound 1-971] | 100 |
| CCC(C)n1oc(=O)c(Cc2ccccc2N(C(=O)OCC2CCCO2)S(=O)(=O)C(F)(F)F)c1C (centres unmarked) [Compound 1-829] | 90 |
